Results as given in the supplement of paper PMC10307832.

How the values were obtained:
Experiment in all cases: relative viability (nuclei count vs DMSO), 5 days (fraction); higher = more cells survive
DM3189 + Trametinib = compound: C1CN(CCN1)C2=CC=C(C=C2)C3=CN4C(=C(C=N4)C5=CC=NC6=CC=CC=C56)N=C3 [DM3189] + CC(=O)Nc1cccc(-n2c(=O)n(C3CC3)c(=O)c3c(Nc4ccc(I)cc4F)n(C)c(=O)c(C)c32)c1 [Trametinib] (partner 0.02 µM)
How it was run: (§1)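 Cells from lung cancer lines were seeded into 1536-well plates and, one day later, dosed by pin tool. Treatments were either a single drug or a fixed dose of an anchor drug with five library-drug doses (not always all listed) in √10 steps. After 5 days, nuclei were stained in a one-step fixation (final 0.05% Triton X-100, 1% formaldehyde, 1 ug/ml Hoechst) and counted on 4× images, and relative viability is the treated-to-vehicle nuclei ratio, as the median of duplicate plates.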

DM3189 + Navitoclax = compound: C1CN(CCN1)C2=CC=C(C=C2)C3=CN4C(=C(C=N4)C5=CC=NC6=CC=CC=C56)N=C3 [DM3189] + CC1(C)CCC(c2ccc(Cl)cc2)=C(CN2CCN(c3ccc(C(=O)NS(=O)(=O)c4ccc(N[C@H](CCN5CCOCC5)CSc5ccccc5)c(S(=O)(=O)C(F)(F)F)c4)cc3)CC2)C1 [Navitoclax] (partner 0.5 µM)
How it was run: as §1

DM3189 + Foretinib = compound: C1CN(CCN1)C2=CC=C(C=C2)C3=CN4C(=C(C=N4)C5=CC=NC6=CC=CC=C56)N=C3 [DM3189] + COc1cc2c(Oc3ccc(NC(=O)C4(C(=O)Nc5ccc(F)cc5)CC4)cc3F)ccnc2cc1OCCCN1CCOCC1 [Foretinib] (partner 0.25 µM)
How it was run: as §1

DM3189 + Lapatinib = compound: C1CN(CCN1)C2=CC=C(C=C2)C3=CN4C(=C(C=N4)C5=CC=NC6=CC=CC=C56)N=C3 [DM3189] + CS(=O)(=O)CCNCc1ccc(-c2ccc3ncnc(Nc4ccc(OCc5cccc(F)c5)c(Cl)c4)c3c2)o1 [Lapatinib] (partner 2 µM)
How it was run: as §1

DM3189 + Dasatinib = compound: C1CN(CCN1)C2=CC=C(C=C2)C3=CN4C(=C(C=N4)C5=CC=NC6=CC=CC=C56)N=C3 [DM3189] + Cc1nc(Nc2ncc(C(=O)Nc3c(C)cccc3Cl)s2)cc(N2CCN(CCO)CC2)n1 [Dasatinib] (partner 0.075 µM)
How it was run: as §1

Cell Line	relative viability (DM3189 + Trametinib; first compound 0.08 µM)	relative viability (DM3189 + Trametinib; first compound 0.253 µM)	relative viability (DM3189 + Trametinib; first compound 0.8 µM)	relative viability (DM3189 + Trametinib; first compound 2.53 µM)	relative viability (DM3189 + Navitoclax; first compound 0.08 µM)	relative viability (DM3189 + Navitoclax; first compound 0.253 µM)	relative viability (DM3189 + Navitoclax; first compound 0.8 µM)	relative viability (DM3189 + Navitoclax; first compound 2.53 µM)	relative viability (DM3189 + Foretinib; first compound 0.08 µM)	relative viability (DM3189 + Foretinib; first compound 0.253 µM)	relative viability (DM3189 + Foretinib; first compound 2.53 µM)	relative viability (DM3189 + Lapatinib; first compound 0.08 µM)	relative viability (DM3189 + Lapatinib; first compound 0.253 µM)	relative viability (DM3189 + Lapatinib; first compound 0.8 µM)	relative viability (DM3189 + Lapatinib; first compound 2.53 µM)	relative viability (DM3189 + Dasatinib; first compound 0.08 µM)	relative viability (DM3189 + Dasatinib; first compound 0.253 µM)	relative viability (DM3189 + Dasatinib; first compound 2.53 µM)	relative viability (DM3189 + Foretinib; first compound 0.8 µM)	relative viability (DM3189 + Dasatinib; first compound 0.8 µM)
HCC-366	0.414	0.362	0.352	0.432	0.955	1.06	0.842	1.04	0.939	0.975	0.936	0.839	0.93	0.681	0.931	0.943	0.759	0.846	–	–
HCC-827	0.492	0.535	0.502	0.54	0.958	0.942	0.887	1.02	1.1	0.945	0.935	0.179	0.161	0.16	0.192	0.378	0.276	0.378	0.953	0.317
HOP-62	0.421	0.509	0.475	0.51	1.09	0.994	0.989	1.17	1.05	1.07	1.16	1.23	0.968	1.01	0.977	0.78	0.65	0.68	1.04	0.716
IA-LM	–	–	–	–	1.22	1.22	0.951	0.987	1.24	1.2	1.32	1.09	–	0.855	1.02	–	–	–	1.26	–
LC-2-ad	0.938	0.901	0.875	0.919	0.59	0.532	0.435	0.358	1.08	0.926	0.992	0.946	0.787	0.823	0.836	0.636	0.487	0.572	0.931	0.458
LCLC-97TM1	0.211	0.198	0.205	0.216	0.291	0.243	0.39	0.519	0.877	0.857	0.747	0.744	0.488	0.416	0.755	0.768	0.591	0.375	0.765	0.591
LCLC-103H	0.748	0.653	0.685	0.681	–	–	–	–	0.847	0.761	0.702	–	–	–	–	0.607	0.457	0.339	0.718	0.393
LK-2	0.586	0.511	0.638	0.497	0.72	0.626	0.483	0.57	1.05	0.88	0.858	0.613	0.625	0.458	0.43	0.294	0.287	0.29	0.72	0.221
LOU-NH91	0.846	0.793	0.685	0.765	0.762	0.688	0.523	0.607	1.08	0.942	0.96	0.76	0.704	0.544	0.605	0.688	0.541	0.475	0.891	0.51
LU99A	0.661	0.533	–	0.634	0.828	0.787	–	0.83	0.82	0.731	0.661	1.02	0.879	–	0.987	0.748	0.565	0.595	–	–
NCI-H358	0.133	0.111	0.129	0.129	–	–	–	–	0.733	0.607	0.61	0.489	0.359	0.523	0.424	0.177	0.166	0.163	0.714	0.17
NCI-H441	0.563	0.536	0.508	0.407	0.567	0.431	0.615	0.62	1.01	0.726	0.702	–	–	–	–	0.69	0.581	0.513	1.24	0.625
NCI-H650	0.988	0.826	0.749	0.877	–	–	–	–	1.04	0.964	1.02	0.992	0.593	0.765	0.521	0.558	0.509	0.408	0.912	0.5
NCI-H661	0.7	0.581	0.642	0.623	–	–	–	–	1.14	0.954	1.19	0.564	0.579	0.53	0.614	1.05	0.832	0.862	1.02	0.787
NCI-H1563	–	–	–	–	–	–	–	–	0.953	0.817	0.987	1.12	0.872	0.854	1.27	0.441	0.381	0.483	0.98	0.459
NCI-H1703	–	–	–	–	1.08	1.05	1	0.709	0.37	0.443	0.263	1.2	1.15	1.17	1.14	–	–	–	0.395	–
NCI-H1792	0.538	0.482	0.438	0.62	0.584	0.601	0.443	0.23	–	–	–	0.973	0.919	0.674	0.431	0.547	0.899	0.927	–	0.716
NCI-H2342	0.805	0.843	0.844	0.74	–	–	–	–	1.08	0.912	0.965	–	–	–	–	0.291	0.3	0.332	1.08	0.299
SW 900	0.818	–	0.832	0.941	–	–	–	–	0.996	0.875	0.728	–	–	–	–	0.733	0.373	0.567	0.794	0.449
